Like-named read-outs stand apart in the source and are kept apart here.
Assays:
Assay in all cases: Test B pre-/postemergence plant response
Assay type in all cases: in vivo
[1] = tested on: barnyardgrass (Echinochloa crus-galli); conditions: 1000 g ai/ha, 0 to 100 scale (0 no effect, 100 complete control); for pest or weed control at 1000 g/ha: Echinochloa crus-galli, 240 h, read-out: Plant response rating, Barnyardgrass
Text: (§1) Seeds of plant species selected from bamyardgrass (Echinochloa crus-galli), kochia (Kochia scoparia), ragweed (common ragweed, Ambrosia elatior), Italian ryegrass (Lolium multiflorum), large (Lg) crabgrass (Digitaria sanguinalis), giant foxtail (Setaria faberii), momingglory (Ipomoea spp.), pigweed (Amaranthus retroflexus), velvetleaf (Abutilon theophrasti), wheat (Triticum aestivum), and corn (Zea mays) were planted into a blend of loam soil and sand and treated preemergence with a directed soil spray using test chemicals formulated in a non-phytotoxic solvent mixture which included a surfactant. At the same time, plants selected from these crop and weed species and also blackgrass (Alopecurus myosuroides), and galium (catchweed bedstraw, Galium aparine) were planted in pots containing the same blend of loam soil and sand and treated with postemergence applications of test chemicals formulated in the same manner. Plants ranged in height from 2 to 10 cm and were in the one- to two-leaf stage for the postemergence treatment. Treated plants and untreated controls were maintained in a greenhouse for approximately 10 days, after which time all treated plants were compared to untreated controls and visually evaluated for injury. Plant response ratings, summarized in Table B, are based on a 0 to 100 scale where 0 is no effect and 100 is complete control. A dash (-) response means no test result.

[2] = tested on: corn (Zea mays); conditions: 1000 g ai/ha, 0 to 100 scale (0 no effect, 100 complete control); for Corn plant response rating (crop injury, 0 = no effect, 100 = complete kill) at 1000 g/ha: Zea mays, 240 h
Text: as §1

[3] = tested on: giant foxtail (Setaria faberii); conditions: 1000 g ai/ha, 0 to 100 scale (0 no effect, 100 complete control); for pest or weed control at 1000 g/ha: Setaria faberi, 240 h, read-out: Plant response rating, Foxtail, Giant
Text: as §1

[4] = tested on: large (Lg) crabgrass (Digitaria sanguinalis); conditions: 1000 g ai/ha, 0 to 100 scale (0 no effect, 100 complete control); for pest or weed control at 1000 g/ha: Digitaria sanguinalis, 240 h, read-out: Plant response rating, Crabgrass, Large
Text: as §1

[5] = tested on: morningglory (Ipomoea spp.); conditions: 1000 g ai/ha, 0 to 100 scale (0 no effect, 100 complete control); for pest or weed control at 1000 g/ha: Ipomoea, 240 h, read-out: Plant response rating, Morningglory
Text: as §1

[6] = tested on: pigweed (Amaranthus retroflexus); conditions: 1000 g ai/ha, 0 to 100 scale (0 no effect, 100 complete control); for pest or weed control at 1000 g/ha: Amaranthus retroflexus, 240 h, read-out: Plant response rating, Pigweed
Text: as §1

[7] = tested on: velvetleaf (Abutilon theophrasti); conditions: 1000 g ai/ha, 0 to 100 scale (0 no effect, 100 complete control); for pest or weed control at 1000 g/ha: Abutilon theophrasti, 240 h, read-out: Plant response rating, Velvetleaf
Text: as §1

[8] = tested on: wheat (Triticum aestivum); conditions: 1000 g ai/ha, 0 to 100 scale (0 no effect, 100 complete control); for plant injury at 1000 g/ha: Triticum aestivum, 240 h, read-out: Plant response rating, Wheat
Text: as §1

Work on `OCc1cc(-c2ccccc2Oc2ncc(Cl)cn2)no1` [Compound 31, 3-[2-[(5-chloro-2-pyrimidinyl)oxy]phenyl]-5-isoxazolemethanol] yielded a pest or weed control at 1000 g/ha ([1]; post-emergence, Postemergence) of 10%, a pest or weed control at 1000 g/ha ([1]; pre-emergence, Preemergence) of 0% and a Corn plant response rating (crop injury, 0 = no effect, 100 = complete kill) at 1000 g/ha ([2]; post-emergence, Postemergence) of 0%. For the same molecule, the Corn plant response rating (crop injury, 0 = no effect, 100 = complete kill) at 1000 g/ha ([2]; pre-emergence, Preemergence) was 0%, the pest or weed control at 1000 g/ha ([3]; post-emergence, Postemergence) was 30% and the pest or weed control at 1000 g/ha ([3]; pre-emergence, Preemergence) was 30%. For the same molecule, the pest or weed control at 1000 g/ha ([4]; post-emergence, Postemergence) was 50%, the pest or weed control at 1000 g/ha ([4]; pre-emergence, Preemergence) was 80% and the pest or weed control at 1000 g/ha ([5]; post-emergence, Postemergence) was 30%. For the same molecule, the pest or weed control at 1000 g/ha ([5]; pre-emergence, Preemergence) was 0%, the pest or weed control at 1000 g/ha ([6]; post-emergence, Postemergence) was 30% and the pest or weed control at 1000 g/ha ([6]; pre-emergence, Preemergence) was 0%. The pest or weed control at 1000 g/ha ([7]; post-emergence, Postemergence) was 30%, the pest or weed control at 1000 g/ha ([7]; pre-emergence, Preemergence) was 0% and the plant injury at 1000 g/ha ([8]; post-emergence, Postemergence) was 0%. For the same molecule, the plant injury at 1000 g/ha ([8]; pre-emergence, Preemergence) was 0%.

`O=Cc1cc(-c2ccccc2Oc2ncc(Cl)cn2)no1` [Compound 33, 3-[2-[(5-chloro-2-pyrimidinyl)oxy]phenyl]-5-isoxazolecarboxaldehyde] was tested, and the pest or weed control at 1000 g/ha ([1]; post-emergence, Postemergence) was 0%, the pest or weed control at 1000 g/ha ([1]; pre-emergence, Preemergence) was 0% and the Corn plant response rating (crop injury, 0 = no effect, 100 = complete kill) at 1000 g/ha ([2]; post-emergence, Postemergence) was 0%. For the same molecule, the Corn plant response rating (crop injury, 0 = no effect, 100 = complete kill) at 1000 g/ha ([2]; pre-emergence, Preemergence) was 0%, the pest or weed control at 1000 g/ha ([3]; post-emergence, Postemergence) was 10% and the pest or weed control at 1000 g/ha ([3]; pre-emergence, Preemergence) was 10%. The pest or weed control at 1000 g/ha ([4]; post-emergence, Postemergence) was 10%, the pest or weed control at 1000 g/ha ([4]; pre-emergence, Preemergence) was 80% and the pest or weed control at 1000 g/ha ([5]; post-emergence, Postemergence) was 10%. It also gave a pest or weed control at 1000 g/ha ([5]; pre-emergence, Preemergence) of 0%, a pest or weed control at 1000 g/ha ([6]; post-emergence, Postemergence) of 10% and a pest or weed control at 1000 g/ha ([6]; pre-emergence, Preemergence) of 40%. It also gave a pest or weed control at 1000 g/ha ([7]; post-emergence, Postemergence) of 0%, a pest or weed control at 1000 g/ha ([7]; pre-emergence, Preemergence) of 0% and a plant injury at 1000 g/ha ([8]; post-emergence, Postemergence) of 0%. For the same molecule, the plant injury at 1000 g/ha ([8]; pre-emergence, Preemergence) was 0%.

With `ClCc1cc(-c2ccccc2Oc2ncc(Cl)cn2)no1` [Compound 34] the “Plant response rating, Barnyardgrass” value ([1]; Postemergence) was 0, the “Plant response rating, Barnyardgrass” value ([1]; Preemergence) was 0 and the “Plant response rating, Corn” value ([2]; Postemergence) was 0. The “Plant response rating, Corn” value ([2]; Preemergence) was 0, the “Plant response rating, Foxtail, Giant” value ([3]; Postemergence) was 0 and the “Plant response rating, Foxtail, Giant” value ([3]; Preemergence) was 10. The “Plant response rating, Crabgrass, Large” value ([4]; Postemergence) was 10, the “Plant response rating, Crabgrass, Large” value ([4]; Preemergence) was 10 and the “Plant response rating, Morningglory” value ([5]; Postemergence) was 0. For the same molecule, the “Plant response rating, Morningglory” value ([5]; Preemergence) was 0, the “Plant response rating, Pigweed” value ([6]; Postemergence) was 40 and the “Plant response rating, Pigweed” value ([6]; Preemergence) was 100. The “Plant response rating, Velvetleaf” value ([7]; Postemergence) was 20, the “Plant response rating, Velvetleaf” value ([7]; Preemergence) was 10 and the “Plant response rating, Wheat” value ([8]; Postemergence) was 0. For the same molecule, the “Plant response rating, Wheat” value ([8]; Preemergence) was 0.

For `N#CCc1cc(-c2ccccc2Oc2ncc(Cl)cn2)no1` [Compound 36], the “Plant response rating, Barnyardgrass” value ([1]; Postemergence) was 90, the “Plant response rating, Barnyardgrass” value ([1]; Preemergence) was 30 and the “Plant response rating, Corn” value ([2]; Postemergence) was 50. For the same molecule, the “Plant response rating, Corn” value ([2]; Preemergence) was 0, the “Plant response rating, Foxtail, Giant” value ([3]; Postemergence) was 90 and the “Plant response rating, Foxtail, Giant” value ([3]; Preemergence) was 90. For the same molecule, the “Plant response rating, Crabgrass, Large” value ([4]; Postemergence) was 80, the “Plant response rating, Crabgrass, Large” value ([4]; Preemergence) was 100 and the “Plant response rating, Morningglory” value ([5]; Postemergence) was 20. For the same molecule, the “Plant response rating, Morningglory” value ([5]; Preemergence) was 10, the “Plant response rating, Pigweed” value ([6]; Postemergence) was 90 and the “Plant response rating, Pigweed” value ([6]; Preemergence) was 100. For the same molecule, the “Plant response rating, Velvetleaf” value ([7]; Postemergence) was 100, the “Plant response rating, Wheat” value ([8]; Postemergence) was 50 and the “Plant response rating, Wheat” value ([8]; Preemergence) was 0.

For `Clc1cnc(Oc2ccccc2-c2ncco2)nc1` [Compound 61], the “Plant response rating, Barnyardgrass” value ([1]; Postemergence) was 10, the “Plant response rating, Barnyardgrass” value ([1]; Preemergence) was 20 and the “Plant response rating, Corn” value ([2]; Postemergence) was 0. The “Plant response rating, Corn” value ([2]; Preemergence) was 0, the “Plant response rating, Foxtail, Giant” value ([3]; Postemergence) was 0 and the “Plant response rating, Foxtail, Giant” value ([3]; Preemergence) was 40. For the same molecule, the “Plant response rating, Crabgrass, Large” value ([4]; Postemergence) was 0, the “Plant response rating, Crabgrass, Large” value ([4]; Preemergence) was 50 and the “Plant response rating, Morningglory” value ([5]; Postemergence) was 10. The “Plant response rating, Morningglory” value ([5]; Preemergence) was 0, the “Plant response rating, Pigweed” value ([6]; Postemergence) was 60 and the “Plant response rating, Pigweed” value ([6]; Preemergence) was 90. For the same molecule, the “Plant response rating, Velvetleaf” value ([7]; Postemergence) was 70, the “Plant response rating, Velvetleaf” value ([7]; Preemergence) was 50 and the “Plant response rating, Wheat” value ([8]; Postemergence) was 0. For the same molecule, the “Plant response rating, Wheat” value ([8]; Preemergence) was 0.
